Test system: TWNT-1 (CVCL J364) hepatic stella cells
Conditions: incubation 2 days
Excerpt: In the case of this assay kit, it is necessary to note that, although the sorafenib@siRNP can be dissolved in phosphate-buffered saline (PBS), free sorafenib is required to be dissolved in dimethylsulfoxide (DMSO).

For `CNC(=O)c1cc(Oc2ccc(NC(=O)Nc3ccc(Cl)c(C(F)(F)F)c3)cc2)ccn1` [sorafenib], the “inhibition of proliferation of TWNT-1” value was “inhibits the proliferation of TWNT-1”.

Reference: patent US12049543B2, “Copolymer containing cyclic nitroxide radical and trialkoxysilyl in side chain, and use thereof” (CrestecBio Inc., priority 2017, dated 2024)
